Assay results from patent US20250241890A1, “1,4-DIUREAS AND 1,4-DITHIOUREAS AND USES THEREOF” (Purdue Research Foundation, priority 2024, published 2025).

System: M17D-TR/αS-3K::YFP cells
Experiment: α-Syn inclusion-forming neuroblastoma cell experiment (Incucyte)
Type: cell-based
Conditions: M17D αS-3K::YFP cells; for cell confluence: relative to DMSO vehicle
Procedure: FIG. 11. Compound 1 prevents αS inclusion formation. M17D cells expressing the inclusion-prone αS-3K::YFP fusion protein (dox-inducible) were treated with 0.1% DMSO (vehicle; “0 μM”) as well as 1.25, 2.5, 5 and 10 μM of compounds 1, 2 and 8 at t=24 hours after plating. Cells were induced with doxycycline at t=48 hours. A) Incucyte-based analysis of punctate YFP signals relative to 0.1% DMSO was done at t=96 hours (N=3 independent experiments, n=6-18 individual wells total (0 μM, n=18; 10 μM, n=6; all other concentrations, n=12). B) Same as panel A, but confluence fold changes relative to DMSO vehicle (0 μM) were plotted. C) Representative IncuCyte images of reporter cells treated with vehicle vs. 10 μM compounds 1, 2, or 8 (t=96 h), green channel. Arrows indicate αS-rich YFP-positive inclusions. Scale bar, 50 μm. All data are presented as fold-changes relative to DMSO control +/−standard deviation. One-way ANOVA, Dunnett's post-hoc test; *, p<0.05; **, p<0.01; ***, p<0.001.
Chemical and peptide source. Dimethylsulfoxide (DMSO) and thioflavin-T (ThT) were purchased from Alfa Aesar (Ward Hill, MA). Recombinant α-synuclein (α-syn) was procured from rPeptide (WatKinsville, GA). The recombinant p-tau isoform 1N4R was prepared as published previously (Fortin et al. 2021, Sui et al. 2015, Liu et al. 2020). Concerning the preparation of tau 0N4R, a bacterial expression plasmid consisting of the vector pET30a carrying a cDNA encoding the human Tau 0N4R isoform was a kind gift of Dr. Benjamin Wolozin (Boston University). E. coli stock (Rosetta BL21 E. coli (CamR) containing pET30a [0N4R tau wt] (KanR)) was grown in LB medium supplemented with kanamycin (50 μg/mL) and chloramphenicol (50 μg/mL). Protein over-expression was induced by the addition of 1 mM IPTG for ˜18 hours at 37° C., and cells were pelleted by centrifugation at 6,000 g for 15 minutes at 4° C. The cells were resuspended in lysis buffer (10 mM Hepes, pH 7.4, 50 mM NaCl, 1 mM MgCl2, 1 mM PMSF, 1× PIC, and 0.5 mM DTT) and lysed by sonication at 30 seconds “On” and 1 minute “Off” at ˜30-45% power for ˜3-5 minutes. Lysate was centrifuged at 10,000 rpm for 10 minutes at 4° C., and supernatant was transferred with 7.8 ml (total) of 3M NaCl. The lysate was incubated for 10 minutes in 80° C. water bath, then cooled for 10 minutes in an ice bath. The lysate was centrifuged at 10,000 rpm at 4° C. for 10 minutes, and the supernatant was transferred to a new tube. The supernatant was dialyzed overnight against cation exchange buffer (50 mM MES, […], 1 mM DTT, pH 6.0). The dialysate was loaded onto a HiPrep SP HP column, and proteins were eluted with a linear gradient ranging from 50 mM to 1 M NaCl. General Characterizations. ^1H and ^13C {1H} NMR spectra were recorded using a 500 MHz Bruker instrument working at a frequency of 500 MHz for ^1H and at 126 MHz for ^13C. Chemical shifts are reported in ppm using residual solvent resonances as internal reference (δ 2.50 and δ 39.51 for ^1H and ^13C in DMSO-d6, respectively). ^1H NMR data are reported as follows. b=broad, s=singlet, d=doublet, t=triplet, q=quartet, and m=multiplet. Coupling constants are given in hertz. The purity of all compounds and synthetic intermediates was judged to be 95% or better based on ^1H NMR. […] Thioflavin fluorescence assays. Thioflavin fluorescence assays were used to monitor fibril formation of commercial recombinant α-syn at a final concentration of 2 μM and treated with control DMSO and different compounds. […]

Row | Structure (SMILES) | cell confluence (1.25 to 10 μM) | α-syn inclusion formation (punctate YFP signals relative to DMSO) (5 and 10 μM, t=96 hours) | numbers of α-syn inclusions (1.25 to 10 μM, t=96 hours)
1 | O=C(Nc1ccc(NC(=O)Nc2cccc3[nH]ccc23)cc1)Nc1cccc2[nH]ccc12 [Compound 1, 3-(1H-indol-4-yl)-1-(4-{[(1H-indol-4-yl)carbamoyl]amino}phenyl)urea] | did not exhibit changes in the cell confluence | – | –
2 | S=C(Nc1ccc(NC(=S)Nc2cccc3[nH]ccc23)cc1)Nc1cccc2[nH]ccc12 [Compound 2, 3-(1H-indol-4-yl)-1-(4-{[(1H-indol-4-yl)carbamothioyl]amino}phenyl)thiourea] | did not exhibit changes in the cell confluence | increased the inclusions | –
3 | S=C(Nc1ccc(NC(=S)Nc2cccc3cc[nH]c23)cc1)Nc1cccc2cc[nH]c12 [Compound 8, 3-(1H-indol-7-yl)-1-(4-{[(1H-indol-7-yl)carbamothioyl]amino}phenyl)thiourea] | did not exhibit changes in the cell confluence | – | very minimal changes in the numbers of inclusions
